According to ChEMBL document CHEMBL1201862, “PubChem BioAssay data set” (2004):
Calls of active or inactive are those of the source.

Legend:
[1] = target: Nuclear receptor subfamily 5 group A member 2 (Homo sapiens, UniProt O00482); type: functional, cell-based;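 note: HEK293T cells transfected with LRH-1 and a StAR promoter luciferase reporter; potency for inhibitors that lower LRH-1 driven reporter light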
[2] = target: Steroidogenic factor 1 (Homo sapiens, UniProt Q13285); assay: Counterscreen for inverse agonists of the liver receptor homolog-1 (LRH-1; NR5A2): Luminescence-based cell-based high throughput dose response assay to identify inverse agonists of the Steroidogenic Factor 1 Nuclear Receptor (SF1; NR5A1).; type: functional
[3] = StAR promoter reporter inhibition counter-screen, dose response, counter-screen for LRH-1 inverse agonist project, cell-based, luminescence, luciferase reporter (AID 651969); type: functional
[4] = NIH/3T3 fibroblast cytotoxicity, dose response, cytotoxicity control for T. cruzi growth inhibitor project, cell-based, cherry-pick samples, set 2 (AID 651817); type: functional; conditions: NIH3T3
[5] = intracellular Trypanosoma cruzi inhibitors in host cells – cell-based, plate reader, cherry-pick samples, set 3, dose response (AID 651818); type: functional;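 note: compounds incubated with infected cells for about four days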
[6] = growth suppression of PTEN-null colon cells, dose response, cell-based, HCT116 PTEN knockout (AID 1047); type: functional;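 note: HCT116 colon tumor cells with PTEN knocked out; cells exposed to compound for 60 hours before readout; potency for loss of cell viability measured by luminescence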
[7] = growth suppression of beta-catenin-knockout colon cells, dose response, cell-based, HCT116, human colon tumor (AID 1045); type: functional;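 note: HCT116 colon tumor cells with beta catenin knocked out; cells exposed to compound for 60 hours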
[8] = target: Intestinal-type alkaline phosphatase (Mus musculus, UniProt P24822); assay: PubChem AID 488785; type: functional
[9] = target: T1, Alkaline phosphatase, tissue-nonspecific isozyme (Homo sapiens, UniProt P05186); assay: TNAP enzyme inhibition by screening hits, dose response, selectivity assay for mouse IAP inhibitor project, biochemical, human TNAP, uHTS hits (AID 488906); type: functional
T1 sequence (P05186 whole entry): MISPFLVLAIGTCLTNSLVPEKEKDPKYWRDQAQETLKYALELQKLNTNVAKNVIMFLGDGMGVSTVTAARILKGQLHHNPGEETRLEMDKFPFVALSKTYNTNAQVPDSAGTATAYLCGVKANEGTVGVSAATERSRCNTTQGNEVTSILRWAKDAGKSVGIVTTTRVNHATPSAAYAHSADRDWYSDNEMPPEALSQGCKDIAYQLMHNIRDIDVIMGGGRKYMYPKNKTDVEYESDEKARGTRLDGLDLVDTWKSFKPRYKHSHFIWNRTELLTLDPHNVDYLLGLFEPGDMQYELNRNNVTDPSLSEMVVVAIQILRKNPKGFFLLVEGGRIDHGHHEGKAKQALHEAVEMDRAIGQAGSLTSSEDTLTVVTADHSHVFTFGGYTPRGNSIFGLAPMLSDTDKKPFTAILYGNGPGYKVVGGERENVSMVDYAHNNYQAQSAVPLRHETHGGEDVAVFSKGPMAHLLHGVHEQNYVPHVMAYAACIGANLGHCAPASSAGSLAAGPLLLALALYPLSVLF

[10] = target: Intestinal-type alkaline phosphatase (Homo sapiens, UniProt P09923); assay: inhibition of human intestinal alkaline phosphatase – biochemical, dose response (AID 488876); type: functional
[11] = tested on: INS1; assay: beta cell apoptosis inhibitors, cytokine rescue, dose response, luminescence, retest (AID 449756); type: functional, cell-based; conditions: Rattus norvegicus;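 note: cell death triggered by IL-1 beta plus TNF-alpha plus IFN-gamma mixture; protective hits raise ATP signal compared with cytokine alone wells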
[12] = target: Hepatocyte nuclear factor 4-alpha (Homo sapiens, UniProt P41235); type: functional, cell-based;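 note: biochemical luminescence-based dose-response counterscreen measuring inhibition of HNF4 dimerization, run alongside a screen for blockers of ABHD5–perilipin-5 interaction; split luciferase complementation of HNF4 fusion proteins in cell lysate measuring dimerization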
[13] = target: T2, Cytochrome P450 1A2 (Homo sapiens, UniProt P05177);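 note: PubChem cytochrome P450 panel assay, CYP1A2 panel member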
T2 sequence (P05177 whole entry): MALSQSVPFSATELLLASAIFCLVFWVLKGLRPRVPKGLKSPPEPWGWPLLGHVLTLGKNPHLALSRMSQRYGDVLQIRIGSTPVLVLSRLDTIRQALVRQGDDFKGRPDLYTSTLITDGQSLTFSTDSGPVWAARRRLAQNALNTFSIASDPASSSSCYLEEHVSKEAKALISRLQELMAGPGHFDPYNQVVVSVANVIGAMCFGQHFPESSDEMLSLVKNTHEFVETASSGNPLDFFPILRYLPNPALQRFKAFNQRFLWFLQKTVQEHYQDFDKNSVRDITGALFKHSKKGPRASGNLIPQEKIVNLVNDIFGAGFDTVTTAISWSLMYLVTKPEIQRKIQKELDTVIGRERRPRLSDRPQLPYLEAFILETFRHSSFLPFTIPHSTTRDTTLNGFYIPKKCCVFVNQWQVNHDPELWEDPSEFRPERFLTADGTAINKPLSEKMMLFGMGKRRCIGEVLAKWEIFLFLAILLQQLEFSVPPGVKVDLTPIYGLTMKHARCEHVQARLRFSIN

[14] = target: Cytochrome P450 2C9 (Homo sapiens, UniProt P11712)
[15] = target: ADP-ribosylation factor GTPase-activating protein 1 (Rattus norvegicus, UniProt Q62848); assay: Fluorescence polarization-based biochemical high throughput dose response screening assay to identify inhibitors of ADP-ribosylation factor GTPase activating protein 1 (ARFGAP1).; type: functional
[16] = target: Arf-GAP with SH3 domain, ANK repeat and PH domain-containing protein 1 (Homo sapiens, UniProt Q9ULH1); type: functional;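 note: biochemical fluorescence polarization dose–response screen measuring inhibition of ASAP1; ASAP1 GAP domain stimulating GTP hydrolysis by truncated human ARF1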
[17] = MDA-MB-231 cell growth inhibition, dose response, cytotoxicity control for RAD54 inhibitor project, CellTiter-Glo luminescence, cherry-pick (AID 651692); type: functional, cell-based
[18] = target: T3, DNA repair and recombination protein RAD54-like (Homo sapiens, UniProt Q92698); assay: inhibitors of human RAD54 branch migration, confirmation, biochemical, fluorescence, cherry-picked samples, dose series (AID 651657); type: functional
T3 sequence (Q92698 whole entry): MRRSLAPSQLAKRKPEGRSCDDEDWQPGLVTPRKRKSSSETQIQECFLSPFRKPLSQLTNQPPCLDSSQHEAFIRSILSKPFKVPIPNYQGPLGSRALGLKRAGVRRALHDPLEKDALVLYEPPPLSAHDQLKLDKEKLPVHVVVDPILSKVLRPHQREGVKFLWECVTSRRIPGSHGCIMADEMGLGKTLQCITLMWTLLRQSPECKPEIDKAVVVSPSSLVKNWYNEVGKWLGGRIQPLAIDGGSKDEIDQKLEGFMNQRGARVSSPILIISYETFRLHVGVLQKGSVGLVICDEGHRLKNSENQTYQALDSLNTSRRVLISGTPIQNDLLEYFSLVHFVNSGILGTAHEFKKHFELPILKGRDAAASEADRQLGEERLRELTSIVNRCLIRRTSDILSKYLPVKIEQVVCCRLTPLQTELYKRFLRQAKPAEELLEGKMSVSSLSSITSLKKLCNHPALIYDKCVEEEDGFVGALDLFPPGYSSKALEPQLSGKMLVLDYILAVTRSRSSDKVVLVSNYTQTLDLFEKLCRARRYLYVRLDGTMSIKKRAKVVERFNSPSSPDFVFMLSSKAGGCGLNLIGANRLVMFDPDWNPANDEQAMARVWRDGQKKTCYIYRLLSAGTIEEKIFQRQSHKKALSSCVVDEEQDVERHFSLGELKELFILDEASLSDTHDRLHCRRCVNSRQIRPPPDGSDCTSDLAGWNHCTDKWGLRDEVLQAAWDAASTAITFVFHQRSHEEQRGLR

[19] = target: T4, DNA repair protein RAD52 homolog (Homo sapiens, UniProt P43351); type: functional, biochemical
T4 sequence (P43351 whole entry): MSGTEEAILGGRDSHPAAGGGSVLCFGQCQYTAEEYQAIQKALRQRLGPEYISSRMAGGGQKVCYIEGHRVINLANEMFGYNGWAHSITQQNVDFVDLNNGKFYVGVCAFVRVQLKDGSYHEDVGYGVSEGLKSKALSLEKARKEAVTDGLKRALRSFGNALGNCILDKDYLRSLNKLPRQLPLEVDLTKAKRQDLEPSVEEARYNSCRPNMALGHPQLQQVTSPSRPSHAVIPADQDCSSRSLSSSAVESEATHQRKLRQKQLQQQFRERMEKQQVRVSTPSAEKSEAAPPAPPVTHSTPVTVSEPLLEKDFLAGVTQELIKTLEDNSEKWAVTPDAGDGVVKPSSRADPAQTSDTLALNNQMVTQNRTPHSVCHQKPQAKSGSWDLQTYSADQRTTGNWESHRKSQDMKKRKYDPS

Sequence of ADP-ribosylation factor GTPase-activating protein 1 (Q62848 whole entry, the tested form may be a part): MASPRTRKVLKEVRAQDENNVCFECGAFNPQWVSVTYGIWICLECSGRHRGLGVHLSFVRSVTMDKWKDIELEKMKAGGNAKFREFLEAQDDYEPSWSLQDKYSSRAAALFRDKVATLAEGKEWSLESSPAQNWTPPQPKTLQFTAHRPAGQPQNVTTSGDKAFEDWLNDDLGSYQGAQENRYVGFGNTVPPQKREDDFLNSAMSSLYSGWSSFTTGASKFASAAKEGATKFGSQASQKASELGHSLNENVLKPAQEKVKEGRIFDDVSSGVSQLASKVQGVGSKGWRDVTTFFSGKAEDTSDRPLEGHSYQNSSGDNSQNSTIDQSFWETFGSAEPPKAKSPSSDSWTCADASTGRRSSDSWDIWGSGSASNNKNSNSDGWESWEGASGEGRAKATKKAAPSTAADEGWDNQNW
Sequence of Nuclear receptor subfamily 5 group A member 2 (O00482 whole entry): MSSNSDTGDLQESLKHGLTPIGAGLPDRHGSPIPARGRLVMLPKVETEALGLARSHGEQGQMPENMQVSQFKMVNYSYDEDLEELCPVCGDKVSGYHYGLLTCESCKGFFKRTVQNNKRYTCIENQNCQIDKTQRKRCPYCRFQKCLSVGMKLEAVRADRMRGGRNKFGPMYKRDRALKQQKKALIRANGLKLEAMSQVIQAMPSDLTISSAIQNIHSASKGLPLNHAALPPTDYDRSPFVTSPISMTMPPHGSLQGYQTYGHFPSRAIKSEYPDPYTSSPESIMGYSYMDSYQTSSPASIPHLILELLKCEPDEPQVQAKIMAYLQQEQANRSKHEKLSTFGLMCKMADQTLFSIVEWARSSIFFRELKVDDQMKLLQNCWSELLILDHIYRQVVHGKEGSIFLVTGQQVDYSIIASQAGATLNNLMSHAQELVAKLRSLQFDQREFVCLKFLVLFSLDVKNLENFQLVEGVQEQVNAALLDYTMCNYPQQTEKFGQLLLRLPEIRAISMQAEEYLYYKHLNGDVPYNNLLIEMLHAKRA
Sequence of Steroidogenic factor 1 (Q13285 whole entry): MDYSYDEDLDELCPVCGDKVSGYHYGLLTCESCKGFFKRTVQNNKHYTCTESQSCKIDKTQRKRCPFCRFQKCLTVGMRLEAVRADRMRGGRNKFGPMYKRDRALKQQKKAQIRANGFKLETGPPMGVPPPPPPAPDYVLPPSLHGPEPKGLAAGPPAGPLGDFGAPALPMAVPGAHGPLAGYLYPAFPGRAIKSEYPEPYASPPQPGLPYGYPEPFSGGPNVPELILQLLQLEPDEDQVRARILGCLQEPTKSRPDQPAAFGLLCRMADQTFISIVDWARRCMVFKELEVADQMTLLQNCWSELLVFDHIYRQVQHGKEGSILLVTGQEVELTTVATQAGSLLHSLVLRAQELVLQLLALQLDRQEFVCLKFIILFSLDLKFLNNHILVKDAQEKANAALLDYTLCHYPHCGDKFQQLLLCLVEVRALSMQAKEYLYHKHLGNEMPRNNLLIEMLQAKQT
Sequence of Intestinal-type alkaline phosphatase (Homo sapiens, UniProt P09923) (P09923 whole entry): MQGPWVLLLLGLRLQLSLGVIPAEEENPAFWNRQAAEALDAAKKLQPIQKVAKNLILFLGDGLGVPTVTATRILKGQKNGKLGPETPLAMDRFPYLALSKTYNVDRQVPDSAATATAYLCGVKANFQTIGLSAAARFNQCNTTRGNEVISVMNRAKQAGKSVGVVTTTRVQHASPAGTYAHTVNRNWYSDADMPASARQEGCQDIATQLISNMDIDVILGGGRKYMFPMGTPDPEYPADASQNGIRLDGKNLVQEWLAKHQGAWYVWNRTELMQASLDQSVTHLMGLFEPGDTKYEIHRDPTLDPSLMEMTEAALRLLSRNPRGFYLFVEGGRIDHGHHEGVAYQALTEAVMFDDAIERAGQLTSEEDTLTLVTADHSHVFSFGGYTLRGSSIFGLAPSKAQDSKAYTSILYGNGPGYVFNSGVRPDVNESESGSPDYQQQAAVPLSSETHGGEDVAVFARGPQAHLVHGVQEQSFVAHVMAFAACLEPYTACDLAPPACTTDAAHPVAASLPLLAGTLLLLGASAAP
Sequence of Cytochrome P450 2C9 (P11712 whole entry): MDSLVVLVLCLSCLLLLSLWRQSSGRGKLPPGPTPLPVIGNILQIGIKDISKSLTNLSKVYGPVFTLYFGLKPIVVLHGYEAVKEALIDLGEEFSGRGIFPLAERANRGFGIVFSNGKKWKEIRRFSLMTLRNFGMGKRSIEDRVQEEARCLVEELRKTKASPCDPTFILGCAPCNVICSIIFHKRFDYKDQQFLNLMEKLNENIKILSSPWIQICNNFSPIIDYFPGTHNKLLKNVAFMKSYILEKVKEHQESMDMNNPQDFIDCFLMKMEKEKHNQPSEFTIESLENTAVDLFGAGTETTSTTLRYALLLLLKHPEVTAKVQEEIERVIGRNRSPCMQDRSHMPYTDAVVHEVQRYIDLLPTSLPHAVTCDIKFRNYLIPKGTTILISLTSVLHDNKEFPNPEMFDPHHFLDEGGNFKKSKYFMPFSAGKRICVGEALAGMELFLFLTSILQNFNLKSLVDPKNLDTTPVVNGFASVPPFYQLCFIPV
Sequence of Arf-GAP with SH3 domain, ANK repeat and PH domain-containing protein 1 (Q9ULH1 whole entry, the tested form may be a part): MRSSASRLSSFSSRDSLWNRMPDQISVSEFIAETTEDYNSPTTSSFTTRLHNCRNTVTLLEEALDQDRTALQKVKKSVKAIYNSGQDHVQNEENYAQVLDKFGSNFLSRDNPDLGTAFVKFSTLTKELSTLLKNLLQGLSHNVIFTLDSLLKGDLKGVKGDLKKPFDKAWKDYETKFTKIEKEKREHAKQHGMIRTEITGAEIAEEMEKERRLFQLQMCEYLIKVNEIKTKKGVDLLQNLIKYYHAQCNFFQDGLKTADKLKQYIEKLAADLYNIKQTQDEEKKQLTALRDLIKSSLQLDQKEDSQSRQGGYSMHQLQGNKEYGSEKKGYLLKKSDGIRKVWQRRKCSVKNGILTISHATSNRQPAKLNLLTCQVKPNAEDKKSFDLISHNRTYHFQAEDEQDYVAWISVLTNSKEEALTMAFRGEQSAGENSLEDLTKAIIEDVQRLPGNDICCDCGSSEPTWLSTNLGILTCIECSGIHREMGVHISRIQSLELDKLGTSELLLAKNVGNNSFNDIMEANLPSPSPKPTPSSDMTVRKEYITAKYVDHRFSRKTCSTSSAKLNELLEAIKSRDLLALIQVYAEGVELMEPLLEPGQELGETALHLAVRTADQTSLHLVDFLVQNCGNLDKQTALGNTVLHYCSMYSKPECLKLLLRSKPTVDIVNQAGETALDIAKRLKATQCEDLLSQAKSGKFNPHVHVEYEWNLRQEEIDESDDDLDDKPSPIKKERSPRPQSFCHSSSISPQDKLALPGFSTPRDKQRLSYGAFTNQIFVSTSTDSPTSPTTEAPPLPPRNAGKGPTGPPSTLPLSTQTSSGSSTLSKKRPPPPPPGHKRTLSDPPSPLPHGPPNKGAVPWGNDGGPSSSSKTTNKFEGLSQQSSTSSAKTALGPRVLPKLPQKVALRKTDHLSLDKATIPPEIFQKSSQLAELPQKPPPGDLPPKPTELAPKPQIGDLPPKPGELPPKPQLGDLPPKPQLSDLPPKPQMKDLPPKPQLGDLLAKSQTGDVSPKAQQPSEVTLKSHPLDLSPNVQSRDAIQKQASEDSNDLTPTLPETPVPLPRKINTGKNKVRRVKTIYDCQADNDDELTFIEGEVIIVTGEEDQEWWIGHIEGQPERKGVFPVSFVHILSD
Sequence of Intestinal-type alkaline phosphatase (Mus musculus, UniProt P24822) (P24822 whole entry): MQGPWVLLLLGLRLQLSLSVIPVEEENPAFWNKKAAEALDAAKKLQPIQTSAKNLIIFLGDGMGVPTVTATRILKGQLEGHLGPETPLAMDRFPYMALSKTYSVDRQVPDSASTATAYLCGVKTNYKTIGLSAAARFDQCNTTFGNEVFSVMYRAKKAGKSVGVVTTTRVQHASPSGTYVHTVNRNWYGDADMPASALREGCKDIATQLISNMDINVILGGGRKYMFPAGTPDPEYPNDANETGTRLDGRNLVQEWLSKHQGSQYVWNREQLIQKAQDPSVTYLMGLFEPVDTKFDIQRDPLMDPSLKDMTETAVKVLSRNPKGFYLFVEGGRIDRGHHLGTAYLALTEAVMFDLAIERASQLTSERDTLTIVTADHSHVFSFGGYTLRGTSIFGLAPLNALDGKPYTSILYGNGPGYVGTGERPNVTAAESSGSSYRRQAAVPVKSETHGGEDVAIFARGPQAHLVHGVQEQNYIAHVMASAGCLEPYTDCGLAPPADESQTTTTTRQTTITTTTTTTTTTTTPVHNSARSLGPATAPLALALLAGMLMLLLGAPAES
Sequence of Hepatocyte nuclear factor 4-alpha (P41235 whole entry, the tested form may be a part): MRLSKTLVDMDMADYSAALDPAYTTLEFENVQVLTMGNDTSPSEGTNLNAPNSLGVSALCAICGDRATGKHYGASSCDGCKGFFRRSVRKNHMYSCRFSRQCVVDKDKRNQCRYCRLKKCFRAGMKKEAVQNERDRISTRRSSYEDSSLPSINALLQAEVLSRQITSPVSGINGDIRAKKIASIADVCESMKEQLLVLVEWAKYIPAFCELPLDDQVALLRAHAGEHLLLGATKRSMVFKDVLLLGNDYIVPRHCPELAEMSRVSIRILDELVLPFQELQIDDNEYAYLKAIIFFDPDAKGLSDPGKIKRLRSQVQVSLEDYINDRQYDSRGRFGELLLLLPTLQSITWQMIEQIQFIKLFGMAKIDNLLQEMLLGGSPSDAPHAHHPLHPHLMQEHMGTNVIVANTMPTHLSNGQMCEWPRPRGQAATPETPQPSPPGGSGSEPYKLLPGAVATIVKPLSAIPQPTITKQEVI

## CCOc1ccc(NC(=O)COC(=O)c2ccc3c(c2)OCCO3)cc1
[1]
  IC50: 12.9 µM (inactive)
[2]
  IC50: 1.01 µM (active)
[3]
  IC50: 35.9 µM (inactive)

## COc1ccc(CN(C)C[C@@H]2Oc3c(NC(=O)Nc4ccc(C(F)(F)F)cc4)cccc3C(=O)N([C@H](C)CO)C[C@H]2C)cc1
[4]
  AC50: 11.3 µM (active)
[5]
  AC50: 1.8 µM (active)

## CCOc1cc(/C=C2\CCC/C(=C\c3cc(Cl)c(O)c(OCC)c3)C2=O)cc(Cl)c1O
[6]
  EC50: 2.24 µM (active)
[7]
  EC50: 2.23 µM (active)
[8]
  IC50: 7.08 µM (active)
[9]
  IC50: > 100 µM (inactive)
[10]
  IC50: > 100 µM (inactive)
[11]
  AC50: 8.02 µM (active)
[12]
  IC50: 6.46 µM (active)
[13]
  AC50: 10 µM (inconclusive)
[14]
  AC50: inconclusive

## COC(=O)Cn1cc(/C=N/NC(=O)COc2cccc3cccnc23)c2ccccc21
[15]
  IC50: 119 µM (inactive)
[16]
  IC50: 116 µM (inactive)

## COc1ccc(-c2oc3ncnc(NCCCN(C)C)c3c2-c2ccc(OC)cc2)cc1
[17]
  AC50: 12.9 µM (active)
[18]
  AC50: 21.7 µM (active)
[19]
  AC50: 3.48 µM (active)
